Reference: patent publication US20080281104A1, “Membrane-Anchoring Fluorescent Probe” (THE UNIVERSITY OF TOKYO, priority 2005, published 2008)

Legend:
[1] = system: HeLa cell membranes; assay: Function as NO probe on cell membrane (NOC13 addition); format: cell-based; conditions: 7.5 μmol/L probe, PBS(+) pH 7.4, NOC13 100 μmol/L at 120 seconds and 1 mmol/L at 1,800 seconds, HeLa cells (FIG. 6)
Protocol: To 1 mL of an extracellular fluid (pH 7.4, PBS (+)) loaded with DAF-PIP-DPPE (7.5 μmol/L) was added NOC13 solution (500 μL) prepared before use.

[2] = system: HeLa cells; assay: Fluorescence intensity change of loaded cells on extracellular pH change; format: cell-based; conditions: extracellular fluid pH from 7.4 to 6.7 to 6.4, loaded cells, fluorescence microscope (FIG. 5)
Protocol: As a control experiment, a fluorescein ester derivative (fluorescein diacetate), which can penetrate cell membranes and undergo hydrolysis by cytoplasmic esterase to distribute fluorescein intracellularly, was loaded on the cells, then the cells were treated in the same manner.

[3] = Fluorescence time course of reaction with NO released from NOC13; conditions: 1.27 μmol/L in PBS(−), 37° C., NOC13 5, 50, 100, 500 μmol/L (FIG. 2)
Protocol: To a 1.27 μmol/L DAF-PIPA PBS(−) solution at 37° C. was added NOC13 as a sustained release-type NO releasing agent at concentrations of 5 μmol/L, 50 μmol/L, 100 μmol/L, and 500 μmol/L, respectively, and change in the reaction with NO over time was measured.

CCCCCCCCCCCCCCCC(=O)OC[C@H](COP(=O)(O)OCCNC(=O)C1CCN(C(=O)c2cc(N)c(N)cc2-c2c3ccc(=O)cc-3oc3cc(O)ccc23)CC1)OC(=O)CCCCCCCCCCCCCCC [DAF-PIP-DPPE]
fluorescence intensity change on cell membranes after NOC13 [1]: Marked increase in the fluorescence intensity

CC(=O)Oc1ccc2c(c1)Oc1cc(OC(C)=O)ccc1C21OC(=O)c2ccccc21 [fluorescein diacetate]
decrease in fluorescence intensity according to pH change of extracellular fluid [2]: no change in fluorescence intensity

DAF-piperidinic Acid [DAF-PIPA]
change in fluorescence intensity on reaction with NO [3]: became larger in a NO concentration-dependent manner
